Paper PMC8280112, “Substrate reduction therapy for Krabbe disease and metachromatic leukodystrophy using a novel ceramide galactosyltransferase inhibitor” (Scientific Reports, 2021)

Target: T1, Human CGT (Homo sapiens, UniProt Q16880)
T1 construct: made in house; host or cells: CHO cells expressing UGT8; crude M-PER lysate
T1 sequence (Q16880 21-541): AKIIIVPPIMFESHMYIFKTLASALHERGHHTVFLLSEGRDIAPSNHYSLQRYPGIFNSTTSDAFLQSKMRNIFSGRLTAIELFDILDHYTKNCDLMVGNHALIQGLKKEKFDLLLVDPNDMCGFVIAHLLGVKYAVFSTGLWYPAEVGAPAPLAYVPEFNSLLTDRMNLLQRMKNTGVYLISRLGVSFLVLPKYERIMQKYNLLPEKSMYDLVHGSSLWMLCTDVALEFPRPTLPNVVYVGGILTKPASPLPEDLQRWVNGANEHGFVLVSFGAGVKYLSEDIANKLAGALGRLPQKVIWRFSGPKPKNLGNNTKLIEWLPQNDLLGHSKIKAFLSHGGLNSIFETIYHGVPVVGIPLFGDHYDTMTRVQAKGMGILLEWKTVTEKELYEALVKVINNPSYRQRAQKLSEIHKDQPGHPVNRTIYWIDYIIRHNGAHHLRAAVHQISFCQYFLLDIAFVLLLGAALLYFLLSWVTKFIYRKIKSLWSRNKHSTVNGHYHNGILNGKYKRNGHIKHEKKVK
Assay: CGT enzyme assay (cell-lysate assay)
Assay type: biochemical
Details: lysate of CHO cells expressing human UGT8
Experimental: Human CGT was obtained from a cell lysate from CHO cells expressing UGT8 (made by BioMarin) prepared in M-PER with proteinase inhibitors (Sigma). Compounds, serially diluted in DMSO and Tween 80, were added to 4 µg/well of CHO/CGT cell lysate to make 20 µL final reaction volume containing 0.5% DMSO and 0.01% Tween 80 in the reaction buffer consisting of 10 µM NDB-(2R-OH)-C6 ceramide (made by BioMarin), 17.5 µM UDP-Galactose (Sigma), 35 µM of dioleoylphosphatidylcholine (DOPC), 5 mM MgCl2, 5 mM MnCl2, 1% BSA, 15 mM KCl, 1 mM EGTA, 8 mM CHAPS, 10 mM HEPES–NaOH pH 7.2. The reaction was incubated at 37 °C for 1 h and stopped by adding 80 µL of methanol:acetonitrile (1:3) with 5 µM N-dodecanoyl-NBD-galactosylceramide (Matreya) internal standard (IS) for 30 min. 200 µL H2O:ACN (1:1) was added for 5 min and then centrifuged at 4000 rpm for 38 min at RT before quantifying NDB-(2R-OH)-C6-galactosylceramide (BioMarin) by LC–MS on a Rapid Fire 360 mass spectrometer (Agilent) coupled with a API4000 + MS in electrospray ionization (ESI) negative mode (Applied Biosystems). These assay conditions were used to screen the Bio-active lipid library (Cayman Cat# 10506).

- IC50: 23 µM
Compound: O=C1N(c2ccc(Br)cc2)C(=O)C(O)(c2ccccc2)N1c1ccc(Br)cc1 (stereo not shown) [S221]
